Assay results reported in patent US10227312B2, “Glucosylceramide synthase inhibitors for the treatment of diseases” (BIOMARIN PHARMACEUTICAL INC., priority 2015, dated 2019).

Columns and labels:
[1] = target: glucosylceramide synthase (GCS) (Canis lupus familiaris, UniProt A0A8I3MXG6); assay: GCS Enzymatic Assay (MDCK lysates); format: biochemical, canine; conditions: MDCK cell lysate, C6-NBD-Ceramide, 37° C. for 1 hour, LC/MS; read-out: Assay 1 (Enzyme Assay; MDCK lysates) IC50
Method: Madin-Darby canine kidney (MDCK) cell lysate was prepared using M-PER Mammalian Protein Extraction Reagent (Thermal Scientific) in the presence of a protease inhibitor cocktail (Roche). Protein concentration was determined using BCA assay kit (Pierce). […] 0.1% DMSO was used as mock treatment or control. The reaction was terminated by adding 100 μL acetonitrile solution and subjected to LC/MS analysis.
The quantitative analysis of NBD-Ceramide and glucosylceramide was performed on a Shimadzu ultra-fast liquid chromatography (Shimadzu, Japan) coupled with API 4000 triple quadrupole mass spectrometer (Applied Biosystems, Concord, Ontario, Canada). Sample separation was conducted on a Waters Xbridge™ BEH130 C18, 100 mm×4.6 mm i.d, 3.5 μm (Milford, Mass., USA). The mobile phase consisted of water and acetonitrile supplemented with 0.1% formic acid (v/v). The flow rate was 1.0 mL/min. The initial mobile phase was 20% acetonitrile and was ramped in a linear fashion to 50% acetonitrile in 0.4 min. From 0.4 to 1.5 min, the gradient was ramped to 98% acetonitrile, and then was held at […] until 8.0 min. Acetonitrile was reset to 20% in 1.5 min, and maintained until 10.0 min. The total run time was 10.0 min. The MS/MS detection was performed in ESI positive mode. […] The cell lysate was diluted with equal volume of acetonitrile. Aliquots of 50 μL diluted samples were added to 1.5 mL tubes, and 100 μL of acetonitrile containing internal standard (100 ng/mL tolbutamide) were added for protein precipitation. The mixture were vortexed and then centrifuged at 13000 rpm for 10 min. 70 μL of supernatant were mixed with 140 μL of H2O and the final solution were injected for LC/MS/MS analysis and IC50's and/or percent inhibitions calculated.

K562 cells = assay: K562 Cell-Based Assay; conditions: Homo sapiens, NBD-Ceramide, LCMS, read-out: Assay 2 (Cellular Assay; K562 cells) IC50
Method: This assay was modified based on the study by Gupta et al. (J. Lipid Res. 2010, 51, 866). K562 cells were seeded into 12-well plates at 3×10^5 cells/well/mL in RPMI-1640 medium with 5% FBS and incubated at 37° C. for 24 h. One μL of a compound described herein at desired concentration (10 mM, 1 mM, 0.1 mM, 0.01 mM, 0.001 mM and 0.0001 mM in DMSO) or DMSO was added into the corresponding well and mixed. Cells were incubated at 37° C. for 4 h. Then 100 μL of RPMI-1640 medium containing 110 μM of NBD-Ceramide, 11% BSA, 5% FBS, and corresponding concentration of a compound described herein was added into each well and mixed. Cells were incubated for additional 0.5 h at 37° C., followed by washing the cells with ice-cold PBS (pH 7.4) twice with centrifugation and resuspended with 50 μL cold PBS+1% Triton X-100. The cell lysate was sonicated for 15 min before adding equal volume of methanol for LCMS analysis. A small aliquot of cell lysate was used to determine protein concentration by BCA assay kit. The HPLC equipment and methods used in Assay 1 were used in this assay as well and IC50's were calculated.

glucosylceramide synthase (GCS), sequence (A0A8I3MXG6 1-394): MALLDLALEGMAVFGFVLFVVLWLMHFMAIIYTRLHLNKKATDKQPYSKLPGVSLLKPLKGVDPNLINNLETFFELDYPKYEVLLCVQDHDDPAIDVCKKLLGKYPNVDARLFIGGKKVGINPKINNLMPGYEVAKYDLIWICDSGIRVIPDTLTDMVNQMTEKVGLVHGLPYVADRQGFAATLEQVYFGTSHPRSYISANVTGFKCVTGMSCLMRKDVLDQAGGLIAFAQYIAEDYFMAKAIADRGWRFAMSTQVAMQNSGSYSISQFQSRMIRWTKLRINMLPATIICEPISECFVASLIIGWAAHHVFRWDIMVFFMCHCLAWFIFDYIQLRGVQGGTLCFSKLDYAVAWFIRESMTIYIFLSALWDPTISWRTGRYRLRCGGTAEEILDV

Row | SMILES | IC50 [1] | IC50 (K562 cells)
1 | O=C(N[C@H](CN1CCCC1)[C@H](O)c1ccc(OC2CC2)c(Cl)c1)C1=NOCc2c1ccc1cccnc21 [Example 27, N-((1R,2R)-1-(3-chloro-4-cyclopropoxyphenyl)-1-hydroxy-3-(pyrrolidin-1-yl)propan-2-yl)-10H-[1,2]oxazino[4,5-h]quinoline-7-carboxamide] | < 0.01 µM | 0.01 to 0.1 µM
2 | O=C(N[C@H](CN1CCCC1)[C@H](O)c1ccc(OC2CC2)c(Cl)c1)C1=NOCc2c1ccc1cc(F)ccc21 [Example 28, N-((1R,2R)-1-(3-chloro-4-cyclopropoxyphenyl)-1-hydroxy-3-(pyrrolidin-1-yl)propan-2-yl)-8-fluoro-1H-naphtho[2,1-d][1,2]oxazine-4-carboxamide] | < 0.01 µM | ≤ 0.01 µM
3 | O=C(N[C@H](CN1CCCC1)[C@H](O)c1ccc(OC2CC2)cc1)C1=NOCc2c1ccc1cc(F)ccc21 [Example 29, N-((1R,2R)-1-(4-cyclopropoxyphenyl)-1-hydroxy-3-(pyrrolidin-1-yl)propan-2-yl)-8-fluoro-1H-naphtho[2,1-d][1,2]oxazine-4-carboxamide] | < 0.01 µM | ≤ 0.01 µM
4 | O=C(N[C@H](CN1CCC1)[C@H](O)c1ccc(OC2CC2)c(Cl)c1)C1=NOCc2c1ccc1cc(F)ccc21 [Example 30, N-((1R,2R)-3-(azetidin-1-yl)-1-(3-chloro-4-cyclopropoxyphenyl)-1-hydroxypropan-2-yl)-8-fluoro-1H-naphtho[2,1-d][1,2]oxazine-4-carboxamide] | < 0.01 µM | 0.01 to 0.1 µM
5 | O=C(N[C@H](CN1CCC1)[C@H](O)c1ccc(OC2CC2)cc1)C1=NOCc2c1ccc1cc(F)ccc21 [Example 31, N-((1R,2R)-3-(azetidin-1-yl)-1-(4-cyclopropoxyphenyl)-1-hydroxypropan-2-yl)-8-fluoro-1H-naphtho[2,1-d][1,2]oxazine-4-carboxamide] | 0.01 to 0.1 µM | 0.01 to 0.1 µM
6 | O=C(N[C@H](CN1CCCC1)[C@H](O)c1ccc(OC2CC2)c(Cl)c1)C1=NOCc2c1ccc1sc(Cl)cc21 [Example 32, 8-chloro-N-((1R,2R)-1-(3-chloro-4-cyclopropoxyphenyl)-1-hydroxy-3-(pyrrolidin-1-yl)propan-2-yl)-1H-thieno[3′,2′:3,4]benzo[1,2-d][1,2]oxazine-4-carboxamide] | < 0.01 µM | ≤ 0.01 µM
7 | Cn1ncc2c3c(ccc21)C(C(=O)N[C@H](CN1CCCC1)[C@H](O)c1ccc(OC2CC2)c(Cl)c1)=NOC3 [Example 33, N-((1R,2R)-1-(3-chloro-4-cyclopropoxyphenyl)-1-hydroxy-3-(pyrrolidin-1-yl)propan-2-yl)-7-methyl-1,7-dihydro-[1,2]oxazino[5,4-e]indazole-4-carboxamide] | < 0.01 µM | 0.01 to 0.1 µM
8 | Cn1ncc2ccc3c(c21)CON=C3C(=O)N[C@H](CN1CCCC1)[C@H](O)c1ccc(OC2CC2)c(Cl)c1 [Example 34, N-((1R,2R)-1-(3-chloro-4-cyclopropoxyphenyl)-1-hydroxy-3-(pyrrolidin-1-yl)propan-2-yl)-1-methyl-1,9-dihydro-[1,2]oxazino[4,5-g]indazole-6-carboxamide] | < 0.01 µM | 0.01 to 0.1 µM
9 | O=C(N[C@H](CN1CCCC1)[C@H](O)c1ccc(OC2CC2)c(Cl)c1)C1=NOCc2c1ccc1ncccc21 [Example 36, N-((1R,2R)-1-(3-chloro-4-cyclopropoxyphenyl)-1-hydroxy-3-(pyrrolidin-1-yl)propan-2-yl)-1H-[1,2]oxazino[5,4-f]quinoline-4-carboxamide] | < 0.01 µM | 0.01 to 0.1 µM
10 | O=C(N[C@H](CN1CCCC1)[C@H](O)c1ccc(OC2CC2)c(Cl)c1)C1=NOCc2c1ccc1cc(Cl)sc21 [Example 37, 2-chloro-N-((1R,2R)-1-(3-chloro-4-cyclopropoxyphenyl)-1-hydroxy-3-(pyrrolidin-1-yl)propan-2-yl)-9H-thieno[2′,3′:3,4]benzo[1,2-d][1,2]oxazine-6-carboxamide] | < 0.01 µM | ≤ 0.01 µM
11 | O=C(N[C@H](CN1CCCC1)[C@H](O)c1ccc(OC2CC2)c(F)c1)C1=NCCc2cc(-c3ccc(F)cc3)ccc21 [Example 38, N-((1R,2R)-1-(4-cyclopropoxy-3-fluorophenyl)-1-hydroxy-3-(pyrrolidin-1-yl)propan-2-yl)-6-(4-fluorophenyl)-3,4-dihydroisoquinoline-1-carboxamide] | 0.01 to 0.1 µM | ≤ 0.01 µM
12 | CN(C(=O)C1=NCCc2cc(-c3ccc(F)cc3)ccc21)[C@H](CN1CCCC1)[C@H](O)c1ccc(OC2CC2)c(Cl)c1 [Example 39, N-((1R,2R)-1-(3-chloro-4-cyclopropoxyphenyl)-1-hydroxy-3-(pyrrolidin-1-yl)propan-2-yl)-6-(4-fluorophenyl)-N-methyl-3,4-dihydroisoquinoline-1-carboxamide] | 0.01 to 0.1 µM | ≤ 0.01 µM
13 | O=C(N[C@H](CN1CCCC1)[C@H](O)c1ccc(OC2CC2)cc1)C1=NOCc2c1ccc1sc(Cl)cc21 [Example 44, 8-chloro-N-((1R,2R)-1-(4-cyclopropoxyphenyl)-1-hydroxy-3-(pyrrolidin-1-yl)propan-2-yl)-1H-thieno[3′,2′:3,4]benzo[1,2-d][1,2]oxazine-4-carboxamide] | 0.01 to 0.1 µM | ≤ 0.01 µM
14 | O=C(N[C@H](CN1CCCC1)[C@H](O)c1ccc(OC2CC2)c(Cl)c1)C1=NOCc2cc(OCC3CCCCC3)ccc21 [Example 45, N-((1R,2R)-1-(3-chloro-4-cyclopropoxyphenyl)-1-hydroxy-3-(pyrrolidin-1-yl)propan-2-yl)-7-(cyclohexylmethoxy)-1H-benzo[d][1,2]oxazine-4-carboxamide] | < 0.01 µM | 0.01 to 0.1 µM
15 | Cn1ncc2ccc3c(c21)CON=C3C(=O)N[C@H](CN1CCCC1)[C@H](O)c1ccc(OC2CC2)c(F)c1 [Example 46, N-((1R,2R)-1-(4-cyclopropoxy-3-fluorophenyl)-1-hydroxy-3-(pyrrolidin-1-yl)propan-2-yl)-1-methyl-1,9-dihydro[1,2]oxazino[4,5-g]indazole-6-carboxamide] | < 0.01 µM | ≤ 0.01 µM
16 | O=C(N[C@H](CN1CCCC1)[C@H](O)c1ccc(OC2CC2)c(F)c1)C1=NOCc2c1ccc1cc(Cl)sc21 [Example 47, 2-chloro-N-((1R,2R)-1-(4-cyclopropoxy-3-fluorophenyl)-1-hydroxy-3-(pyrrolidin-1-yl)propan-2-yl)-9H-thieno[2′,3′:3,4]benzo[1,2-d][1,2]oxazine-6-carboxamide] | < 0.01 µM | ≤ 0.01 µM
